Our source for the IC50 values is patent US8614218B2, “Fused bicyclic pyrimidines” (Bayer Intellectual Property GmbH, priority 2007, dated 2013).

SMILES strings stand for the structures. Bounds are passed on as bounds.

The test concerns A549 cells. In words: Cellular proliferation/cytotoxicity assay (Alamar Blue), A549. The test is classed as cell-based. Conditions: Homo sapiens, 72 h, Alamar Blue (Resazurin), read-out: Anti-proliterative/Cytotoxic activity (A549 cells). Put shortly:
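OvCAR3 (10000 cells/well) or A549 (2000 cells/well) were dosed 24 h after seeding and exposed for 72 h at 37 °C, 5% CO2, in duplicate or more. Resazurin was added for 4 h and fluorescence read at 544/590 nm. Viability is relative to untreated 0.5% DMSO controls, with IC50 by non-linear regression.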
A general note: Resazurin is reduced to fluorescent resorufin, in cell work by metabolically active cells.
`CC(c1ccc(-c2nc3nccn3cc2-c2ccccc2)cc1)N1CCC(c2n[nH]c(-c3ccccn3)n2)CC1` (racemic) [Example 23, 6-phenyl-7-(4-{1-[4-(5-pyridin-2-yl-1H-1,2,4-triazol-3-yl)piperidin-1-yl]ethyl}phenyl)imidazo[1,2-a]pyrimidine]: the IC50 is over 10 µM. For `Fc1cnc2nc(-c3ccc(CN4CCC(c5n[nH]c(-c6cnccn6)n5)CC4)cc3)c(-c3ccccc3)cn12` [Example 24, 3-fluoro-6-phenyl-7-(4-{[4-(5-pyrazin-2-yl-1,2,4-triazol-3-yl)piperidin-1-yl]methyl}phenyl)imidazo[1,2-a]pyrimidine] the value was over 10 µM; for `Fc1cnc2nc(-c3ccc(CN4CCC(c5n[nH]c(-c6ncccn6)n5)CC4)cc3)c(-c3ccccc3)cn12` [Example 25, 3-fluoro-6-phenyl-7-(4-{[4-(5-pyrimidin-2-yl-1H-1,2,4-triazol-3-yl)piperidin-1-yl]methyl}phenyl)imidazo[1,2-a]pyrimidine], over 10 µM; for `Clc1cnn2cc(-c3ccccc3)c(-c3ccc(CN4CCC(c5n[nH]c(-c6ccccn6)n5)CC4)cc3)nc12` [Example 30, 3-Chloro-6-phenyl-5-(4-{[4-(5-pyridin-2-yl-1H-1,2,4-triazol-3-yl)piperidin-1-yl]methyl}phenyl)pyrazolo[1,5-a]pyrimidine], under 10 µM. Under `Brc1cnn2cc(-c3ccccc3)c(-c3ccc(CN4CCC(c5n[nH]c(-c6ccccn6)n5)CC4)cc3)nc12` [Example 31, 3-Bromo-6-phenyl-5-(4-{[4-(5-pyridin-2-yl-1H-1,2,4-triazol-3-yl)piperidin-1-yl]methyl}phenyl)pyrazolo[1,5-a]pyrimidine] stands under 10 µM. Turning to `N#Cc1cnn2cc(-c3ccccc3)c(-c3ccc(CN4CCC(c5n[nH]c(-c6ccccn6)n5)CC4)cc3)nc12` [Example 32, 6-Phenyl-5-(4-{[4-(5-pyridin-2-yl-1H-1,2,4-triazol-3-yl)piperidin-1-yl]methyl}phenyl)pyrazolo[1,5-a]pyrimidine-3-carbonitrile], the IC50 is over 10 µM. For `C#Cc1cnn2cc(-c3ccccc3)c(-c3ccc(CN4CCC(c5n[nH]c(-c6ccccn6)n5)CC4)cc3)nc12` [Example 33, 3-Ethynyl-6-phenyl-5-(4-{[4-(5-pyridin-2-yl-1H-1,2,4-triazol-3-yl)piperidin-1-yl]methyl}phenyl)pyrazolo[1,5-a]pyrimidine] the value was under 10 µM; for `CCc1cnn2cc(-c3ccccc3)c(-c3ccc(CN4CCC(c5n[nH]c(-c6ccccn6)n5)CC4)cc3)nc12` [Example 34, 3-Ethyl-6-phenyl-5-(4-{[4-(5-pyridin-2-yl-1H-1,2,4-triazol-3-yl)piperidin-1-yl]methyl}phenyl)pyrazolo[1,5-a]pyrimidine], under 10 µM; for `Cc1ccnc(-c2nc(C3CCN(Cc4ccc(-c5nc6nccn6cc5-c5ccccc5)cc4)CC3)n[nH]2)c1` [Example 35, 7-[4-({4-[5-(4-Methylpyridin-2-yl)-1H-1,2,4-triazol-3-yl]piperidin-1-yl}methyl)phenyl]-6-phenylimidazo[1,2-a]pyrimidine], under 10 µM. For `Cc1cccc(-c2nc(C3CCN(Cc4ccc(-c5nc6nccn6cc5-c5ccccc5)cc4)CC3)n[nH]2)n1` [Example 36, 7-[4-({4-[5-(6-Methylpyridin-2-yl)-1H-1,2,4-triazol-3-yl]piperidin-1-yl}methyl)phenyl]-6-phenylimidazo[1,2-a]pyrimidine] the value was under 10 µM; for `CCc1nc2nc(-c3ccc(CN4CCC(c5n[nH]c(-c6ccccn6)n5)CC4)cc3)c(-c3ccccc3)cn2n1` [Example 40, 2-Ethyl-6-phenyl-5-(4-{[4-(5-pyridin-2-yl-1H-1,2,4-triazol-3-yl)piperidin-1-yl]methyl}phenyl)[1,2,4]triazolo[1,5-a]pyrimidine], under 10 µM.
